Source: patent US12077503B2, “Substituted cyclic amides and their use as herbicides” (FMC CORPORATION, priority 2015, dated 2024)

Experiments:
Type in all cases: in vivo
[1] = test system: ducksalad (Heteranthera limosa); experiment: Test B flooded paddy test; conditions: Heteranthera limosa, 250 g ai/ha, Flood; 0 to 100 scale where 0 is no effect and 100 is complete control; read-out: Ducksalad plant response rating
Procedure, shortened: (§1)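 Compound goes directly into floodwater once pots are flooded 3 cm above soil, targeting plants at two leaves; the water depth is then held for the test duration. Plants sit 13–15 d in a greenhouse and are rated visually, 100 denoting complete control.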

[2] = test system: sedge, umbrella (small-flower umbrella sedge, Cyperus difformis); experiment: Test B flooded paddy test; conditions: Cyperus difformis, 250 g ai/ha, Flood; 0 to 100 scale where 0 is no effect and 100 is complete control; read-out: Sedge, Umbrella plant response rating
Procedure, shortened: as §1

rice (Oryra sativa) = experiment: Test B flooded paddy test; conditions: Oryza sativa, 250 g ai/ha, Flood; 0 to 100 scale where 0 is no effect and 100 is complete control; read-out: Rice plant response rating
Procedure, shortened: as §1

[3] = test system: barnyardgrass (Echinochloa crus-galli); experiment: Test B flooded paddy test; conditions: Echinochloa crus-galli, 250 g ai/ha, Flood; 0 to 100 scale where 0 is no effect and 100 is complete control; read-out: Barnyardgrass plant response rating
Procedure, shortened: as §1

[4] = test system: giant foxtail (Setaria faberii); experiment: Test A preemergence; conditions: Setaria faberi, pre-emergence, 240 h, Preemergence
Procedure, shortened: (§2)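 Treatment is preemergence as a directed soil spray after planting, or postemergence at the one- to two-leaf stage, with test chemical in a non-phytotoxic solvent mixture plus surfactant. Plants stay in the greenhouse about 10 d before visual injury scoring on a 0 to 100 scale versus untreated controls.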

[5] = test system: pigweed (Amaranthus retroflexus); experiment: Test A preemergence; conditions: Amaranthus retroflexus, pre-emergence, 240 h, Preemergence
[6] = test system: ragweed (common ragweed, Ambrosia elatior); experiment: Test A preemergence; conditions: Ambrosia artemisiifolia, pre-emergence, 240 h, Preemergence
Procedure, shortened: as §2

Kochia (Kochia scoparia) [7] = experiment: Test A preemergence; conditions: Bassia scoparia, pre-emergence, 240 h, Preemergence
Procedure, shortened: as §2

[8] = test system: ryegrass, Italian (Italian ryegrass, Lolium multiflorum); experiment: Test A preemergence; conditions: Lolium multiflorum, pre-emergence, 240 h, Preemergence
Procedure, shortened: as §2

[9] = test system: barnyardgrass (Echinochloa crus-galli); experiment: Test A preemergence; conditions: Echinochloa crus-galli, pre-emergence, 240 h, Preemergence
Procedure, shortened: as §2

[10] = test system: blackgrass (Alopecurus myosuroides); experiment: Test A postemergence; conditions: Alopecurus myosuroides, post-emergence, 240 h, Postemergence, read-out: Plant response rating, Blackgrass
Procedure, shortened: as §2

[11] = test system: wheat (Triticum aestivum); experiment: Test A postemergence; conditions: Triticum aestivum, post-emergence, 240 h, Postemergence, read-out: Plant response rating, Wheat
Procedure, shortened: as §2

[12] = test system: Galium (catchweed bedstraw, Galium aparine); experiment: Test A postemergence; conditions: Galium, post-emergence, 240 h, Postemergence, read-out: Plant response rating, Galium
Procedure, shortened: as §2

[13] = test system: giant foxtail (Setaria faberii); experiment: Test A postemergence; conditions: Setaria faberi, post-emergence, 240 h, Postemergence, read-out: Plant response rating, Foxtail, Giant
Procedure, shortened: as §2

[14] = test system: pigweed (Amaranthus retroflexus); experiment: Test A postemergence; conditions: Amaranthus retroflexus, post-emergence, 240 h, Postemergence, read-out: Plant response rating, Pigweed
Procedure, shortened: as §2

[15] = test system: ragweed (common ragweed, Ambrosia elatior); experiment: Test A postemergence; conditions: Ambrosia artemisiifolia, post-emergence, 240 h, Postemergence, read-out: Plant response rating, Ragweed
Procedure, shortened: as §2

Kochia (Kochia scoparia) [16] = experiment: Test A postemergence; conditions: Bassia scoparia, post-emergence, 240 h, Postemergence, read-out: Plant response rating, Kochia
Procedure, shortened: as §2

corn (Zea mays) = experiment: Test A postemergence; conditions: Zea mays, post-emergence, 240 h, Postemergence
Procedure, shortened: as §2

[17] = test system: ryegrass, Italian (Italian ryegrass, Lolium multiflorum); experiment: Test A postemergence; conditions: Lolium multiflorum, post-emergence, 240 h, Postemergence, read-out: Plant response rating, Ryegrass, Italian
Procedure, shortened: as §2

[18] = test system: barnyardgrass (Echinochloa crus-galli); experiment: Test A postemergence; conditions: Echinochloa crus-galli, post-emergence, 240 h, Postemergence, read-out: Plant response rating, Barnyardgrass
Procedure, shortened: as §2

[19] = 125 g ai/ha, visual injury after approximately 10 d, 0 to 100 scale where 0 is no effect and 100 is complete control
[20] = 31 g ai/ha, visual injury after approx. 10 d, 0 to 100 scale, 0 no effect, 100 complete control

CN1CC[C@H](c2ccccc2C(F)(F)F)[C@@H](C(=O)Nc2ccccc2C(F)(F)F)C1=O [Compound 1008]
pest or weed control at 250 g/ha [1]: 95%
pest or weed control at 250 g/ha [2]: 0%
pest or weed control at 250 g/ha (rice (Oryra sativa)): 0%
pest or weed control at 250 g/ha [3]: 0%
pest or weed control at 125 g/ha ([4]; 125 g ai/ha, visual injury rating after approximately 10 d, read-out: Foxtail, Giant plant response rating (0 to 100 scale, 0 is no effect, 100 is complete control)): 0%
pest or weed control at 31 g/ha ([4]; 31 g ai/ha, 0 to 100 scale (0 no effect, 100 complete control), read-out: Plant response rating, Foxtail, Giant): 0%
pest or weed control at 31 g/ha ([5]; 31 g ai/ha, 0 to 100 scale where 0 is no effect and 100 is complete control, read-out: Pigweed plant response rating): 0%
pest or weed control at 125 g/ha ([5]; 125 g ai/ha, visual injury rating after approximately 10 d, read-out: Pigweed plant response rating (0 to 100 scale, 0 is no effect, 100 is complete control)): 0%
pest or weed control at 31 g/ha ([6]; 31 g ai/ha, 0 to 100 scale where 0 is no effect and 100 is complete control, read-out: Ragweed plant response rating): 0%
pest or weed control at 125 g/ha ([6]; 125 g ai/ha, visual injury rating after approximately 10 d, read-out: Ragweed plant response rating (0 to 100 scale, 0 is no effect, 100 is complete control)): 0%
pest or weed control at 31 g/ha (Kochia (Kochia scoparia) [7]; 31 g ai/ha, 0 to 100 scale where 0 is no effect and 100 is complete control, read-out: Kochia plant response rating): 0%
pest or weed control at 125 g/ha (Kochia (Kochia scoparia) [7]; 125 g ai/ha, visual injury rating after approximately 10 d, read-out: Kochia plant response rating (0 to 100 scale, 0 is no effect, 100 is complete control)): 0%
pest or weed control at 31 g/ha ([8]; 31 g ai/ha, 0 to 100 scale where 0 is no effect and 100 is complete control, read-out: Ryegrass, Italian plant response rating): 0%
pest or weed control at 125 g/ha ([8]; 125 g ai/ha, visual injury rating after approximately 10 d, read-out: Ryegrass, Italian plant response rating (0 to 100 scale, 0 is no effect, 100 is complete control)): 0%
pest or weed control at 125 g/ha ([9]; 125 g ai/ha, visual injury rating after approximately 10 d, read-out: Barnyardgrass plant response rating (0 to 100 scale, 0 is no effect, 100 is complete control)): 0%
pest or weed control at 31 g/ha ([9]; 31 g ai/ha, 0 to 100 scale (0 no effect, 100 complete control), read-out: Plant response rating, Barnyardgrass): 0%
pest or weed control at 125 g/ha [10, 19]: 0%
pest or weed control at 31 g/ha [10, 20]: 0%
plant injury at 125 g/ha [11, 19]: 0%
plant injury at 31 g/ha [11, 20]: 0%
pest or weed control at 125 g/ha [12, 19]: 0%
pest or weed control at 31 g/ha [12, 20]: 0%
pest or weed control at 125 g/ha [13, 19]: 0%
pest or weed control at 31 g/ha [13, 20]: 0%
pest or weed control at 125 g/ha [14, 19]: 0%
pest or weed control at 31 g/ha [14, 20]: 0%
pest or weed control at 125 g/ha [15, 19]: 0%
pest or weed control at 31 g/ha [15, 20]: 0%
pest or weed control at 125 g/ha (Kochia (Kochia scoparia) [16]; [19]): 0%
pest or weed control at 31 g/ha (Kochia (Kochia scoparia) [16]; [20]): 0%
Corn plant response rating (crop injury, 0 = no effect, 100 = complete kill) at 125 g/ha (corn (Zea mays); [19]): 0%
Corn plant response rating (crop injury, 0 = no effect, 100 = complete kill) at 31 g/ha (corn (Zea mays); [20]): 0%
pest or weed control at 125 g/ha [17, 19]: 0%
pest or weed control at 31 g/ha [17, 20]: 0%
pest or weed control at 125 g/ha [18, 19]: 0%
pest or weed control at 31 g/ha [18, 20]: 0%
